Results: ChEMBL document CHEMBL6153102, “Rational Design, Synthesis, and Biological Evaluation of Novel c-Met Degraders for Lung Cancer Therapy” (J Med Chem, 2025)
The source made the active and inactive calls. The rule behind the calls is not given here.

What was measured:
[1] = molecular target: T1, Protein cereblon/Hepatocyte growth factor receptor (Homo sapiens, UniProt P08581+Q96SW2); experiment: PROTAC activity at c-Met/CRBN in human EBC-1 cells assessed as reduction in c-Met level at 3.9 to 125 nM incubated for 24 hrs in presence of MG132 by Western blot analysis; type: cell-based; settings: dose 3.9-125 nM
Target sequence in this assay (P08581 25-1390 limits assumed): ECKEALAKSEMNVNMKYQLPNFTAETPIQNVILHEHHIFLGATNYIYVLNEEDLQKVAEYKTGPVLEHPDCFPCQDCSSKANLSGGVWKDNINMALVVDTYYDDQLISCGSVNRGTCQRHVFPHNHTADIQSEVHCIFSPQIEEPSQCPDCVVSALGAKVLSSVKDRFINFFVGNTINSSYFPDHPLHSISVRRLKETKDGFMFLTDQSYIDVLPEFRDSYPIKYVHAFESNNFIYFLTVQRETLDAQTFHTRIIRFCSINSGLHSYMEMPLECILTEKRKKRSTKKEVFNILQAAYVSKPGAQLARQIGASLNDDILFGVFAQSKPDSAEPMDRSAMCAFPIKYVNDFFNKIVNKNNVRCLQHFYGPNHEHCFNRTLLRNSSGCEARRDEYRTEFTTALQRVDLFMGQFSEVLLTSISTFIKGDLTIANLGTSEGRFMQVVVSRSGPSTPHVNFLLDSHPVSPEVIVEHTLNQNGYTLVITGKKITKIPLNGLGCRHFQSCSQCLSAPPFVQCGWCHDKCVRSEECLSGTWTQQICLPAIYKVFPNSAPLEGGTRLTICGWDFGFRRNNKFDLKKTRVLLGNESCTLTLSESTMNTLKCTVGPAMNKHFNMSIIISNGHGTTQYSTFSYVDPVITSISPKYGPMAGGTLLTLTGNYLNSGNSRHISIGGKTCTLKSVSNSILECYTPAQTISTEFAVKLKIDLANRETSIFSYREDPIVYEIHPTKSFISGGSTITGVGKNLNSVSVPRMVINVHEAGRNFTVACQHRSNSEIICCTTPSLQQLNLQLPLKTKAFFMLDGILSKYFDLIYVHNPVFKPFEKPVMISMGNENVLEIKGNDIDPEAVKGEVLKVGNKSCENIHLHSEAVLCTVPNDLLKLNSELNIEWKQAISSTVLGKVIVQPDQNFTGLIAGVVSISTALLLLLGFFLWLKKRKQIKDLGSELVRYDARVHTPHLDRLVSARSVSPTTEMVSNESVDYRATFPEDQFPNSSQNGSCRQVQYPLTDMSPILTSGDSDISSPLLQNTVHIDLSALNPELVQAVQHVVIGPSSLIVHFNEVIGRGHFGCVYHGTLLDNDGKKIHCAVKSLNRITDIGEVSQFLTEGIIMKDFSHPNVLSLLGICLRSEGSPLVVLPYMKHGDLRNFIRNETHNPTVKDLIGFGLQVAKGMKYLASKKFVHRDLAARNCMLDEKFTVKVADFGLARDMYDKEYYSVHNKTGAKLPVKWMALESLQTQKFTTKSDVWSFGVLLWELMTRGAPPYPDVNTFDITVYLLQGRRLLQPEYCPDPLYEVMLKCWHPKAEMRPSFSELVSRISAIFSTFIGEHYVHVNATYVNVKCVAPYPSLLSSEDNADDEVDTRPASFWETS
Target sequence in this assay (Q96SW2 whole entry partner): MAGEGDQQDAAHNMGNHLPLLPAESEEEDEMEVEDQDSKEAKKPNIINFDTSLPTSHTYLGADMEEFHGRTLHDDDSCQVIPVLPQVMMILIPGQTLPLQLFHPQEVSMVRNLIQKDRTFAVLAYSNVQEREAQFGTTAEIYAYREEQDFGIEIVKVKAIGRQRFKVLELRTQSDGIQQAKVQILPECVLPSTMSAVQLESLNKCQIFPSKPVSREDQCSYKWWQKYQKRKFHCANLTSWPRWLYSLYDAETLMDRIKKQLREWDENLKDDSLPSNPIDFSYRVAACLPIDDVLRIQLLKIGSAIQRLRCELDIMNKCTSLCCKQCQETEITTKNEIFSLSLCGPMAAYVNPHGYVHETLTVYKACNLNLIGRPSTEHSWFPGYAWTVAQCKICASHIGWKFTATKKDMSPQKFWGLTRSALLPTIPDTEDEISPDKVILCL

[2] = molecular target: T1, Protein cereblon/Hepatocyte growth factor receptor; experiment: PROTAC activity at c-Met/CRBN in human EBC-1 cells assessed as reduction in c-Met mRNA level at 3.9 to 125 nM incubated for 24 hrs by qPCR analysis; type: cell-based; settings: dose 3.9-125 nM
Target sequence in this assay (P08581 25-1390 limits assumed): as the sequence (P08581 25-1390 limits assumed) above
Target sequence in this assay (Q96SW2 whole entry partner): as the sequence (Q96SW2 whole entry partner) above

[3] = molecular target: T1, Protein cereblon/Hepatocyte growth factor receptor; experiment: PROTAC activity at c-Met/CRBN in human EBC-1 cells assessed as effect on SALL4 level at 15.6 nM incubated for 24 hrs by proteomics analysis; type: cell-based
Target sequence in this assay (P08581 25-1390 limits assumed): as the sequence (P08581 25-1390 limits assumed) above
Target sequence in this assay (Q96SW2 whole entry partner): as the sequence (Q96SW2 whole entry partner) above

[4] = molecular target: T1, Protein cereblon/Hepatocyte growth factor receptor; experiment: PROTAC activity at c-Met/CRBN in human EBC-1 cells assessed as reduction in UHRF1 level at 15.6 nM incubated for 24 hrs by proteomics analysis; type: cell-based
Target sequence in this assay (P08581 25-1390 limits assumed): as the sequence (P08581 25-1390 limits assumed) above
Target sequence in this assay (Q96SW2 whole entry partner): as the sequence (Q96SW2 whole entry partner) above

[5] = molecular target: T1, Protein cereblon/Hepatocyte growth factor receptor; experiment: PROTAC activity at c-Met/CRBN in human EBC-1 cells assessed as reduction in TPX2 level at 15.6 nM incubated for 24 hrs by proteomics analysis; type: cell-based
Target sequence in this assay (P08581 25-1390 limits assumed): as the sequence (P08581 25-1390 limits assumed) above
Target sequence in this assay (Q96SW2 whole entry partner): as the sequence (Q96SW2 whole entry partner) above

[6] = molecular target: T1, Protein cereblon/Hepatocyte growth factor receptor; experiment: PROTAC activity at c-Met/CRBN in human EBC-1 cells assessed as reduction in TXNDC9 level at 15.6 nM incubated for 24 hrs by proteomics analysis; type: cell-based
Target sequence in this assay (P08581 25-1390 limits assumed): as the sequence (P08581 25-1390 limits assumed) above
Target sequence in this assay (Q96SW2 whole entry partner): as the sequence (Q96SW2 whole entry partner) above

[7] = molecular target: T1, Protein cereblon/Hepatocyte growth factor receptor; experiment: PROTAC activity at c-Met/CRBN in human A549 cells assessed as induction of c-Met degradation at 100 nM incubated for 24 hrs by Western blotting analysis relative to control; type: cell-based
[8] = molecular target: T1, Protein cereblon/Hepatocyte growth factor receptor; experiment: PROTAC activity at c-Met/CRBN in human EBC-1 cells assessed as induction of c-Met degradation incubated for 24 hrs by Western blotting analysis; type: cell-based
[9] = molecular target: T1, Protein cereblon/Hepatocyte growth factor receptor; experiment: PROTAC activity at c-Met/CRBN in human EBC-1 cells assessed as induction of c-Met degradation at 15.6 nM incubated for 24 hrs by Western blotting analysis relative to control; type: cell-based
[10] = molecular target: T1, Protein cereblon/Hepatocyte growth factor receptor; experiment: PROTAC activity at c-Met/CRBN in human A549 cells assessed as induction of c-Met degradation incubated for 24 hrs by Western blotting analysis; type: cell-based
Target sequence in this assay (P08581 whole entry): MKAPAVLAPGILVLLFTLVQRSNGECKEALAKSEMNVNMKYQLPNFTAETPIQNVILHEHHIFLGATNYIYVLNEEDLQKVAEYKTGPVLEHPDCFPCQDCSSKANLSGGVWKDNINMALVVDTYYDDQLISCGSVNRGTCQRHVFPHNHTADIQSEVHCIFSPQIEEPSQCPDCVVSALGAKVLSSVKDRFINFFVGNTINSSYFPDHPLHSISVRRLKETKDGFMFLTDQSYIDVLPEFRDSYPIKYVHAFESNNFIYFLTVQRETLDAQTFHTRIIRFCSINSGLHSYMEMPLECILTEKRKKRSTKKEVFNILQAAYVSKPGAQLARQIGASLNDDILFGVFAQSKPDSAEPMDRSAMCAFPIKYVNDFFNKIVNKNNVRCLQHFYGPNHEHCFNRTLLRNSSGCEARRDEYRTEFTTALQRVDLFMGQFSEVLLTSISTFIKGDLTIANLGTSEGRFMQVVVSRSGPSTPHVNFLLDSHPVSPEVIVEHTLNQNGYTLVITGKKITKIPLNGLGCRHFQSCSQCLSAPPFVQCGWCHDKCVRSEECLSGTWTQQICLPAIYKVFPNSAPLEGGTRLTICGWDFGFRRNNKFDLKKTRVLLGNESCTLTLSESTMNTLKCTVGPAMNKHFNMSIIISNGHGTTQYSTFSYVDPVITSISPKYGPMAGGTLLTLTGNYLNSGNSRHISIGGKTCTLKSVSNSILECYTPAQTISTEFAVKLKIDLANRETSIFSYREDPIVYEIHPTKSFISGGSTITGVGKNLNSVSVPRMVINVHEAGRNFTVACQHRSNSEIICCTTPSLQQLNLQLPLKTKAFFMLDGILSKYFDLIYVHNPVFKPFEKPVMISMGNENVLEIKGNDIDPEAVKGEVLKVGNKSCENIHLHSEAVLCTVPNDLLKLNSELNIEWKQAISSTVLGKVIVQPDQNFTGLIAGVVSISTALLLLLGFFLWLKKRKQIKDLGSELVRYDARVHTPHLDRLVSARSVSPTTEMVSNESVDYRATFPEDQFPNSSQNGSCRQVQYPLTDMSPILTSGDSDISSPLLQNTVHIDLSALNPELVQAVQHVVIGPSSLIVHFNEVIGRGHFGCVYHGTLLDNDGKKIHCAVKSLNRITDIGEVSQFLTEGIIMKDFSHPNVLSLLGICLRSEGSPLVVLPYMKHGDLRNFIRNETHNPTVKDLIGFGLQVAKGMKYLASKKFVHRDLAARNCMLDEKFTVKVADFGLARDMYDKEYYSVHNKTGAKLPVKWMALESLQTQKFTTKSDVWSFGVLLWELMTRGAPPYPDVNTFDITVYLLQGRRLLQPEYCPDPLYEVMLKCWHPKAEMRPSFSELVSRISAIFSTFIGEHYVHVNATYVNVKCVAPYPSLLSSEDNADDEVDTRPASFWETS
Target sequence in this assay (Q96SW2 whole entry): as the sequence (Q96SW2 whole entry partner) above

[11] = molecular target: T1, Protein cereblon/Hepatocyte growth factor receptor; experiment: PROTAC activity at c-Met/CRBN in human EBC-1 cells assessed as induction of c-Met degradation at 15.6 nM incubated for 72 hrs by Western blotting analysis relative to control; type: cell-based
[12] = molecular target: T1, Protein cereblon/Hepatocyte growth factor receptor; experiment: PROTAC activity at c-Met/CRBN in human EBC-1 cells assessed as induction of c-Met degradation at 15.6 nM by Western blotting analysis; type: cell-based; settings: time 72.0 hrs
[13] = molecular target: T1, Protein cereblon/Hepatocyte growth factor receptor; experiment: PROTAC activity at c-Met/CRBN in human A549 cells assessed as induction of c-Met degradation at 15.6 nM by Western blotting analysis; type: cell-based; settings: time 72.0 hrs
[14] = molecular target: T1, Protein cereblon/Hepatocyte growth factor receptor; experiment: PROTAC activity at c-Met/CRBN in human HCT-116 cells assessed as induction of c-Met degradation at 15.6 nM by Western blotting analysis; type: cell-based; settings: time 72.0 hrs
HCT-116 = experiment: Antiproliferative activity against human HCT-116 cells assessed as cell viability incubated for 72 hrs by MTT assay; type: functional, cell-based; settings: HCT-116, 72 h
EBC-1 [15] = experiment: Induction of apoptosis in human EBC-1 cells assessed as viable cells at 5 nM incubated for 24 hrs by Annexin V/FITC staining based flow cytometry analysis (reference value: 95.9%); type: functional; settings: read-out: Activity
EBC-1 [16] = experiment: Induction of apoptosis in human EBC-1 cells assessed as necrotic cells at 5 nM incubated for 24 hrs by Annexin V/FITC staining based flow cytometry analysis (reference value: 0.35 %); type: functional
EBC-1 [17] = experiment: Induction of apoptosis in human EBC-1 cells assessed as viable cells at 15 nM incubated for 24 hrs by Annexin V/FITC staining based flow cytometry analysis (reference value: 95.9%); type: functional; settings: read-out: Activity
EBC-1 [18] = experiment: Induction of apoptosis in human EBC-1 cells assessed as early apoptotic cells at 15 nM incubated for 24 hrs by Annexin V/FITC staining based flow cytometry analysis (reference value: 2.11 %); type: functional
EBC-1 [19] = experiment: Induction of apoptosis in human EBC-1 cells assessed as necrotic cells at 15 nM incubated for 24 hrs by Annexin V/FITC staining based flow cytometry analysis (reference value: 0.35 %); type: functional
EBC-1 [20] = experiment: Induction of apoptosis in human EBC-1 cells assessed as upregulation of PARP level incubated for 24 hrs by Western blot analysis; type: functional, cell-based; settings: dose 5-50 nM
[21] = Stability in rat plasma assessed as half life; type: ADME, cell-free
[22] = Metabolic stability in rat liver microsome assessed as half life; type: ADME; settings: liver microsomes
[23] = Metabolic stability in human liver microsome assessed as half life; type: ADME; settings: liver microsomes
[24] = Tmax in Sprague-Dawley rat at 2 mg/kg, iv measured upto 24 hrs by LC-MS/MS analysis; type: ADME, organism-based; settings: in vivo
[25] = AUC (0 to t) in Sprague-Dawley rat at 5 mg/kg, ip measured upto 24 hrs by LC-MS/MS analysis; type: ADME, organism-based; settings: in vivo
[26] = Apparent volume of distribution in Sprague-Dawley rat at 2 mg/kg, iv measured upto 24 hrs by LC-MS/MS analysis; type: ADME, organism-based; settings: in vivo
[27] = MRT (0 to t) in Sprague-Dawley rat at 2 mg/kg, iv measured upto 24 hrs by LC-MS/MS analysis; type: ADME, organism-based; settings: in vivo
[28] = MRT (0 to infinity) in Sprague-Dawley rat at 2 mg/kg, iv measured upto 24 hrs by LC-MS/MS analysis; type: ADME, organism-based; settings: in vivo
[29] = MRT (0 to infinity) in Sprague-Dawley rat at 5 mg/kg, ip measured upto 24 hrs by LC-MS/MS analysis; type: ADME, organism-based; settings: in vivo
[30] = Toxicity in BALB/c nude mouse assessed as body weight loss at 10 to 20 mg/kg, ip administered for 7 days; type: organism-based; settings: in vivo, 168 h, dose 10-20 mg/kg, time 7 day
EBC-1 [31] = experiment: Antitumor activity against human EBC-1 cells xenografted BALB/c nude mouse assessed as reduction in tumor volume at 20 mg/kg, ip administered for 7 days; type: functional; set-up: scale not given: the % may be the effect or the level left; settings: time 7 day
[32] = Toxicity in BALB/c nude mouse assessed as heart damage at 10 to 20 mg/kg, ip administered for 7 days by H and E staining based analysis; type: organism-based; settings: in vivo, 168 h, dose 10-20 mg/kg, time 7 day
[33] = Toxicity in BALB/c nude mouse assessed as liver damage at 10 to 20 mg/kg, ip administered for 7 days by H and E staining based analysis; type: organism-based; settings: in vivo, 168 h, dose 10-20 mg/kg, time 7 day
EBC-1 [34] = experiment: PROTAC activity at c-Met […] mutant /CRBN in human EBC-1 cells assessed as induction of c-Met degradation incubated for 24 hrs by Western blotting analysis; type: cell-based; settings: dose <= 1000.0 nM
EBC-1 [35] = experiment: PROTAC activity at c-Met Y1230C mutant /CRBN in human EBC-1 cells assessed as induction of c-Met degradation up to 1000 nM incubated for 24 hrs by Western blotting analysis; type: cell-based
[36] = molecular target: T1, Protein cereblon/Hepatocyte growth factor receptor; experiment: PROTAC activity at c-Met/CRBN in human A549 cells assessed as reduction in c-Met level incubated for 24 hrs by Western blotting analysis; type: cell-based
Target sequence in this assay (P08581 whole entry): as the sequence (P08581 whole entry) above
Target sequence in this assay (Q96SW2 whole entry): as the sequence (Q96SW2 whole entry partner) above

## COc1ccc(C(=O)N2CCC3(CCN(C(=O)CN4CCC(COc5cnc(-c6cccc(Cn7nc(-c8cccc(C#N)c8)ccc7=O)c6)nc5)CC4)CC3)CC2)cc1N1CCC(=O)NC1=O
[1]
  Activity: Active
[2]
  Activity: Active
[3]
  Activity: No effect
[4]
  Activity: Active
[5]
  Activity: Active
[6]
  Activity: Active
[7]
  Activity: inactive
[8]
  DC50: 0.59 nM
[8]; dose 0.03 nM
  Activity: Dose-dependent-effect
[9]
  Emax: 96.1%
[10]
  DC50: < 15.6 nM
[11]
  Activity: 93.1%
[12]
  Activity: Time-dependent-effect
[13]
  Activity: Time-dependent-effect
[14]
  Activity: Time-dependent-effect
HCT-116
  IC50: 6190 nM
EBC-1 [15]
  viability at 0.005 µM: 66.4%
EBC-1 [16]
  Activity: 0.42%
EBC-1 [17]
  viability at 0.015 µM: 65%
EBC-1 [18]
  Activity: 30.8%
EBC-1 [19]
  Activity: 0.58%
EBC-1 [20]
  Activity: Dose-dependent-effect
[21]
  half-life: > 2 h
[22]
  half-life: 2.22 h
[23]
  half-life: 0.362 h
[24]
  Tmax: 5.04 min
[25]
  AUCt: 655 ng·h/mL
[26]
  Vz: 13.13 L/kg
[27]
  MRT last at 24 h: 2.49 h
[28]
  MRT: 3.58 h
[29]
  MRT inf: 6 h
[30]
  Activity: Non-toxic
EBC-1 [31]
  Activity: 86.14%
[32]
  Activity: Non-toxic
[33]
  Activity: Non-toxic
EBC-1 [34]
  Activity: Dose-dependent-effect
EBC-1 [35]
  Activity: Active
[36]
  DC50: 41.8 nM
